pIC50: −log10 of the molar value.
Key:
Saccharomyces cerevisiae = experiment: Inhibition of baker's yeast alpha-glucosidase at 300 uM using p-nitrophenyl alpha-D-glucopyranoside as substrate preincubated for 15 mins followed by substrate addition measured for 20 mins by spectrophotometric analysis relative to control
[1] = Inhibition of baker's yeast alpha-glucosidase using p-nitrophenyl alpha-D-glucopyranoside as substrate preincubated for 15 mins followed by substrate addition measured for 20 mins by spectrophotometric analysis; set-up: species or system Saccharomyces cerevisiae

Structure (SMILES)	inhibition (Saccharomyces cerevisiae) [%]	pIC50 [1]
O=[N+]([O-])c1ccc2nc(-c3nc4ccc([N+](=O)[O-])cc4n3Cc3nnc(S)n3-c3ccccc3)n(Cc3nnc(S)n3-c3ccccc3)c2c1	23.7	
O=[N+]([O-])c1ccc2nc(-c3nc4ccc([N+](=O)[O-])cc4n3Cc3nnc(Nc4ccccc4)s3)n(Cc3nnc(Nc4ccccc4)s3)c2c1	89.1	5.28
O=C(Cn1c(-c2nc3ccc([N+](=O)[O-])cc3n2CC(=O)NNC(=S)NCc2ccccc2)nc2ccc([N+](=O)[O-])cc21)NNC(=S)NCc1ccccc1	100	6.31
NNC(=O)Cn1c(-c2nc3ccc([N+](=O)[O-])cc3n2CC(=O)NN)nc2ccc([N+](=O)[O-])cc21	100	6.36
NNC(=O)Cn1c(-c2nc3ccccc3n2CC(=O)NN)nc2ccccc21	45.8	
Sc1nnc(Cn2c(-c3nc4ccccc4n3Cc3nnc(S)n3-c3ccccc3)nc3ccccc32)n1-c1ccccc1	100	5.52
CCOC(=O)Cn1c(-c2nc3ccc([N+](=O)[O-])cc3n2CC(=O)OCC)nc2ccc([N+](=O)[O-])cc21	85.8	5.17
O=[N+]([O-])c1ccc2nc(-c3nc4ccc([N+](=O)[O-])cc4n3Cc3nnc(NCc4ccccc4)s3)n(Cc3nnc(NCc4ccccc4)s3)c2c1	48.4	
c1ccc(Nc2nnc(Cn3c(-c4nc5ccccc5n4Cc4nnc(Nc5ccccc5)s4)nc4ccccc43)s2)cc1	42.7	
O=C(Cn1c(-c2nc3ccccc3n2CC(=O)NNC(=S)Nc2ccccc2)nc2ccccc21)NNC(=S)Nc1ccccc1	39.6	
O=C(Cn1c(-c2nc3ccccc3n2CC(=O)NNC(=S)NCc2ccccc2)nc2ccccc21)NNC(=S)NCc1ccccc1	23.2	
C[C@H]1O[C@H](O[C@H]2[C@H](O)[C@@H](O)[C@@H](O[C@H]3[C@H](O)[C@@H](O)C(O)O[C@@H]3CO)O[C@@H]2CO)[C@H](O)[C@@H](O)[C@@H]1N[C@H]1C=C(CO)[C@@H](O)[C@H](O)[C@H]1O (stereo partly drawn) [ACARBOSE]	83.3	4.87
O=[N+]([O-])c1ccc2nc(-c3nc4ccc([N+](=O)[O-])cc4[nH]3)[nH]c2c1	100	6.27
O=[N+]([O-])c1ccc2nc(-c3nc4ccc([N+](=O)[O-])cc4n3Cc3nnc(S)n3Cc3ccccc3)n(Cc3nnc(S)n3Cc3ccccc3)c2c1	35.8	
O=C(Cn1c(-c2nc3ccc([N+](=O)[O-])cc3n2CC(=O)NNC(=S)Nc2ccccc2)nc2ccc([N+](=O)[O-])cc21)NNC(=S)Nc1ccccc1	100	5.91

— ChEMBL document CHEMBL4431388, “Molecular docking studies and synthesis of novel bisbenzimidazole derivatives as inhibitors of α-glucosidase” (Bioorg Med Chem, 2016)
